{"source": "patent US11612627B2", "about": "“Method for preventing or treating thrombosis” (ANDONG NATIONAL UNIVERSITY INDUSTRY-ACADEMIC COOPERATION …, priority 2020, dated 2023)", "key": {"coagulation factors": {"test_system": "coagulation factors", "experiment": "aPTT (activated partial thromboplastin time)", "type": "biochemical", "details": "clot time sample/clot time DMSO, 3-carene section Table 3", "procedure": "Subsequently, 50 μl of CaCl2 (35 mM) was added. […] Instead of samples, DMSO served as a solvent control. […] The aPPT was expressed as a mean value of the measurements of three independent experiments.\nInstead of samples, DMSO served as a solvent control. […] The aPPT was expressed as a mean value of the measurements of three independent experiments."}, "prothrombin": {"test_system": "prothrombin", "experiment": "Prothrombin time (plasma clotting)", "type": "biochemical", "details": "clot time sample/clot time DMSO, 3-carene section Table 3", "procedure": "In an Amelung coagulometer KC-1A tube (Japan), 70 μl of standard plasma (MD Pacific Co., China) was heated, together with 10 μl of each of samples having various concentrations, at 37° C. for 3 min before adding 130 μl of PT reagent thereto. […] This experiment was repeated three times independently. The prothrombin time was expressed as a mean value of the three measurements."}, "human erythrocytes": {"test_system": "human erythrocytes", "experiment": "Human erythrocyte lysis (hemolysis) activity", "type": "cell-based", "procedure": "In this regard, erythrocyte lysis activity was assayed as reported previously (Sohn, Ho-Yong, 2014. Korean J. Microbiol. Biotechnol. 42: 285-292). Briefly, 100 μl of human erythrocytes, after being washed three times with PBS, was added to each well of 96-well microplates, mixed with 100 μl of each of samples having various concentrations, and incubated at 37° C. for 30 min. Subsequently, the reaction mixture was centrifuged for 10 min (1,500 rpm). After 100 μl of the supernatant was transferred to new microtiter plates, absorbance was read at 414 nm to analyze hemoglobin release according to hemolysis. DMSO (2%) was used as a solvent control for the samples while Triton X-100 (1 mg/ml) served as a control for hemolysis. Hemolysis activity was calculated according to the following equation: (%)Hemolysis=[(Abs. S−Abs. C)/(Abs. T−Abs. C)]×100\nAbs. S: Absorbance of sample\nAbs. C: Absorbance of DMSO\nAbs. T: Absorbance of Triton X-100 added control"}, "Human enriched platelets": {"test_system": "Human enriched platelets", "experiment": "Platelet aggregation inhibition activity (collagen, whole-blood aggregometer)", "type": "cell-based", "details": "for Platelet Aggregation Activity: AUC sample/AUC DMSO x 100; for Platelet Aggregation Curve: Amplitude / Platelet Aggregation Curve: Area under curve / Platelet Aggregation Curve: Lag time / Platelet Aggregation Curve: Slope: collagen-induced", "procedure": "Platelet Aggregation Inhibition Activity Human enriched platelets were used. They were washed once with a washing buffer (138 mM NaCl, 2.7 mM KCl, 12 mM NaHCO3, 0.36 mM NaH2PO4, 5.5 mM Glucose, 1 mM EDTA, pH 6.5) and then resuspended in a suspending buffer (138 mM NaCl, 2.7 mM KCl, 12 mM NaHCO3, 0.36 mM NaH2PO4, 5.5 mM Glucose, 0.49 mM MgCl2, 0.25% gelatin, pH 7.4). Centrifugation at 3,000 rpm for 10 min was followed by resuspension in a suspending buffer, with the platelets adjusted to the density of 4×10^9/ml. Subsequently, 1 ml of the suspension was incubated with 2.5 μl of collagen for 5 min, after which platelet aggregation was measured at 37° C. using a whole-blood aggregometer (Chrono-log, USA)."}, "[1]": {"details": "miscible with oil; cited from earlier work"}}, "note": "Where “and” joins values, the source holds several entries; their conditions need not be identical. Equal values may be shown once."}
{"compound": "O=C(O)c1ccc(O)cc1", "note": "[4-Hydroxybenzoic acid, 4-hydroxybenzoic acid]", "values": [{"measurement": "Blood coagulation inhibition activity: aPTT", "setting": "coagulation factors; 0.5 mg/ml", "result": "0.94 ± 0.15"}, {"measurement": "Blood coagulation inhibition activity: Prothrombin Time", "setting": "prothrombin; 0.5 mg/ml", "result": "0.99 ± 0.00"}]}
{"compound": "C[C@@H]1[C@H](O)[C@@H](C)/C=C/C=C/C=C/C=C/C=C/C=C/C=C/[C@H](O[C@@H]2O[C@H](C)[C@@H](O)[C@H](N)[C@@H]2O)C[C@@H]2O[C@](O)(C[C@@H](O)C[C@@H](O)[C@H](O)CC[C@@H](O)C[C@@H](O)CC(=O)O[C@H]1C)C[C@H](O)[C@H]2C(=O)O", "note": "[Amphotericin B, amphotericin B]", "values": [{"measurement": "Human hemolytic activity", "setting": "human erythrocytes; 0.003 mg/ml, flower section Table 3", "result": "26.5 ± 9.6", "unit": "%"}, {"measurement": "Human hemolytic activity", "setting": "human erythrocytes; 0.006 mg/ml, flower section Table 3", "result": "38.0 ± 0.7", "unit": "%"}, {"measurement": "Human hemolytic activity", "setting": "human erythrocytes; 0.00625 mg/ml, flower section Table 6", "result": "38.0 ± 0.7", "unit": "%"}, {"measurement": "Human hemolytic activity", "setting": "human erythrocytes; 0.0125 mg/ml, flower section Table 6", "result": "48.2 ± 5.9", "unit": "%"}, {"measurement": "Human hemolytic activity", "setting": "human erythrocytes; 0.0125 mg/ml, leaf section Table 4", "result": "48.2 ± 5.9", "unit": "%"}, {"measurement": "Human hemolytic activity", "setting": "human erythrocytes; 0.025 mg/ml, flower section Table 3", "result": "59.5 ± 6.3", "unit": "%"}, {"measurement": "Human hemolytic activity", "setting": "human erythrocytes; 0.025 mg/ml, flower section Table 3, listed as amphotericin B", "result": "≥ 50", "unit": "%"}, {"measurement": "Human hemolytic activity", "setting": "human erythrocytes; 0.025 mg/ml, flower section Table 6", "result": "59.5 ± 6.3", "unit": "%"}, {"measurement": "Human hemolytic activity", "setting": "human erythrocytes; 0.025 mg/ml, leaf section Table 4", "result": "59.5 ± 6.3", "unit": "%"}, {"measurement": "Human hemolytic activity", "setting": "human erythrocytes; 0.025 mg/ml, leaf section Table 4, listed as amphotericin B", "result": "≥ 50", "unit": "%"}, {"measurement": "Human hemolytic activity", "setting": "human erythrocytes; 0.05 mg/ml, flower section Table 3", "result": "80.7 ± 7.3", "unit": "%"}, {"measurement": "Human hemolytic activity", "setting": "human erythrocytes; 0.05 mg/ml, flower section Table 6", "result": "80.7 ± 7.3", "unit": "%"}, {"measurement": "Human hemolytic activity", "setting": "human erythrocytes; 0.05 mg/ml, leaf section Table 4", "result": "80.7 ± 7.3", "unit": "%"}, {"measurement": "Human hemolytic activity", "setting": "human erythrocytes; 0.1 mg/ml, flower section Table 3", "result": "95.8 ± 0.3", "unit": "%"}, {"measurement": "Human hemolytic activity", "setting": "human erythrocytes; 0.1 mg/ml, flower section Table 6", "result": "95.8 ± 0.3", "unit": "%"}, {"measurement": "Human hemolytic activity", "setting": "human erythrocytes; 0.1 mg/ml, leaf section Table 4", "result": "95.8 ± 0.3", "unit": "%"}]}
{"compound": "CC(=O)Oc1ccccc1C(=O)O", "note": "[Aspirin, aspirin]", "values": [{"measurement": "Platelet Aggregation Activity", "setting": "Human enriched platelets; 0.125 mg/ml", "result": 82.2, "unit": "%"}, {"measurement": "Platelet Aggregation Curve: Amplitude", "setting": "Human enriched platelets; 0.125 mg/ml", "result": 14, "unit": "ohm"}, {"measurement": "Platelet Aggregation Curve: Area under curve", "setting": "Human enriched platelets; 0.125 mg/ml", "result": 78.0}, {"measurement": "Platelet Aggregation Curve: Lag time", "setting": "Human enriched platelets; 0.125 mg/ml", "result": 35, "unit": "s"}, {"measurement": "Platelet Aggregation Curve: Slope", "setting": "Human enriched platelets; 0.125 mg/ml", "result": 2}, {"measurement": "Platelet Aggregation Activity", "setting": "Human enriched platelets; 0.25 mg/ml", "result": 49.7, "unit": "%"}, {"measurement": "Platelet Aggregation Curve: Amplitude", "setting": "Human enriched platelets; 0.25 mg/ml", "result": 8, "unit": "ohm"}, {"measurement": "Platelet Aggregation Curve: Area under curve", "setting": "Human enriched platelets; 0.25 mg/ml", "result": 47.2}, {"measurement": "Platelet Aggregation Curve: Lag time", "setting": "Human enriched platelets; 0.25 mg/ml", "result": 128, "unit": "s"}, {"measurement": "Platelet Aggregation Curve: Slope", "setting": "Human enriched platelets; 0.25 mg/ml", "result": 1}]}
{"compound": "CC1=CCC2C(C1)C2(C)C", "note": "(stereo not shown) [Extract 3-Carene, 3-carene]", "values": [{"measurement": "Solubility in water", "setting": "[1]", "result": "not soluble in water"}, {"measurement": "Blood coagulation inhibition activity: aPTT", "setting": "coagulation factors; 0.5 mg/ml", "result": "1.23 ± 0.05"}, {"measurement": "Blood coagulation inhibition activity: aPTT", "setting": "coagulation factors; 0.75 mg/ml", "result": "1.61 ± 0.03"}, {"measurement": "Blood coagulation inhibition activity: aPTT", "setting": "coagulation factors; 1.0 mg/ml", "result": "2.26 ± 0.08"}, {"measurement": "Blood coagulation inhibition activity: aPTT", "setting": "coagulation factors; 1.0 mg/ml, listed as 3-carene", "result": 2.26}, {"measurement": "Blood coagulation inhibition activity: Prothrombin Time", "setting": "prothrombin; 0.5 mg/ml", "result": "1.05 ± 0.02"}, {"measurement": "Blood coagulation inhibition activity: Prothrombin Time", "setting": "prothrombin; 0.75 mg/ml", "result": "1.29 ± 0.00"}, {"measurement": "Blood coagulation inhibition activity: Prothrombin Time", "setting": "prothrombin; 1.0 mg/ml", "result": "1.43 ± 0.09"}, {"measurement": "Blood coagulation inhibition activity: Prothrombin Time", "setting": "prothrombin; 1.0 mg/ml, listed as 3-carene", "result": 1.43}]}
{"compound": "Triton X-100", "values": [{"measurement": "Human hemolytic activity", "setting": "human erythrocytes; 1.0 mg/ml, 37° C. 30 min, leaf section Table 4", "result": "100% and 100.0 ± 0.1%"}, {"measurement": "Human hemolytic activity", "setting": "human erythrocytes; 1.0 mg/ml, flower section Table 3", "result": "100% and 100.6 ± 0.8%"}, {"measurement": "Human hemolytic activity", "setting": "human erythrocytes; 1.0 mg/ml, flower section Table 6", "result": "100.6 ± 0.8", "unit": "%"}]}
